From PubChem BioAssay AID1845202 (Molecular Pharmacology Branch, DTP, NCI, 2023)

Tested on: DMS 114 tumor spheroids, viability % test/control
Assay: Anticancer human tumor DMS 114 cell line growth inhibition;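 further: spheroids exposed to compounds for 7 days before read-out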;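 on viability, T/C: luminescence used as a proxy for viable cells; 100% = DMSO vehicle control viability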
Conditions: spheroids with HUVEC and MSC; for IC50: curve of first compound; for viability, T/C: stronger effect = lower value
Outline: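 Single agents and combinations were tested on spheroids built from tumor cells plus HUVEC and hMSC, at half-log dilutions starting at or near clinical Cmax, else 10 microM; final DMSO 0.25% (v/v).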

Q: How did the IC50 (second compound 30 pM) turn out when `CNCc1ccc(-c2cc(-c3nc(-c4ccc(S(=O)(=O)C(C)C)cc4)cnc3N)on2)cc1` + COc1cc2c(cc1O)CCNC21CSC2c3c(OC(C)=O)c(C)c4c(c3C(COC1=O)N1C(O)C3Cc5cc(C)c(OC)c(O)c5C(C21)N3C)OCO4 was run?
A: 0.115 µM

Q: And the IC50 (second compound 94.9 pM)?
A: 0.065 µM

Q: And the IC50 (second compound 0.0003 µM)?
A: < 0.00949 µM

Q: And the IC50 (second compound 0.000949 µM)?
A: < 0.00949 µM

Q: And the IC50 (second compound 0.003 µM)?
A: < 0.00949 µM

Q: And the viability, T/C (second compound 30 pM, first compound 0.00949 µM)?
A: 96.4%

Q: What about the viability, T/C (second compound 30 pM, first compound 0.03 µM) of the same compound?
A: 94.3%

Q: What about the viability, T/C (second compound 30 pM, first compound 0.0949 µM) of the same compound?
A: 53.1%

Q: What about the viability, T/C (second compound 30 pM, first compound 0.3 µM) of the same compound?
A: 20.8%

Q: And the viability, T/C (second compound 30 pM, first compound 0.949 µM)?
A: 2.84%

Q: What about the viability, T/C (second compound 30 pM, first compound 3 µM) of the same compound?
A: 0.19%

Q: And the viability, T/C (second compound 94.9 pM, first compound 0.00949 µM)?
A: 93.9%

Q: And the viability, T/C (second compound 94.9 pM, first compound 0.03 µM)?
A: 70.5%

Q: What about the viability, T/C (second compound 94.9 pM, first compound 0.0949 µM) of the same compound?
A: 41.3%

Q: And the viability, T/C (second compound 94.9 pM, first compound 0.3 µM)?
A: 12.2%

Q: What about the viability, T/C (second compound 94.9 pM, first compound 0.949 µM) of the same compound?
A: 2.28%

Q: And the viability, T/C (second compound 94.9 pM, first compound 3 µM)?
A: 0.17%

Q: What about the viability, T/C (second compound 0.0003 µM, first compound 0.00949 µM) of the same compound?
A: 38.6%

Q: What about the viability, T/C (second compound 0.0003 µM, first compound 0.03 µM) of the same compound?
A: 28.3%

Q: What about the viability, T/C (second compound 0.0003 µM, first compound 0.0949 µM) of the same compound?
A: 17.8%

Q: And the viability, T/C (second compound 0.0003 µM, first compound 0.3 µM)?
A: 11.7%

Q: And the viability, T/C (second compound 0.0003 µM, first compound 0.949 µM)?
A: 1.89%

Q: What about the viability, T/C (second compound 0.0003 µM, first compound 3 µM) of the same compound?
A: 0.25%

Q: What about the viability, T/C (second compound 0.000949 µM, first compound 0.00949 µM) of the same compound?
A: 4.46%

Q: What about the viability, T/C (second compound 0.000949 µM, first compound 0.03 µM) of the same compound?
A: 4.77%

Q: And the viability, T/C (second compound 0.000949 µM, first compound 0.0949 µM)?
A: 3.57%

Q: And the viability, T/C (second compound 0.000949 µM, first compound 0.3 µM)?
A: 3.71%

Q: What about the viability, T/C (second compound 0.000949 µM, first compound 0.949 µM) of the same compound?
A: 0.67%

Q: What about the viability, T/C (second compound 0.000949 µM, first compound 3 µM) of the same compound?
A: 0.15%

Q: And the viability, T/C (second compound 0.003 µM, first compound 0.00949 µM)?
A: 0.28%

Q: What about the viability, T/C (second compound 0.003 µM, first compound 0.03 µM) of the same compound?
A: 0.28%

Q: What about the viability, T/C (second compound 0.003 µM, first compound 0.0949 µM) of the same compound?
A: 0.31%

Q: And the viability, T/C (second compound 0.003 µM, first compound 0.3 µM)?
A: 0.26%

Q: And the viability, T/C (second compound 0.003 µM, first compound 0.949 µM)?
A: 0.23%

Q: What about the viability, T/C (second compound 0.003 µM, first compound 3 µM) of the same compound?
A: 0.25%

Q: Which IC50 (second compound 30 pM) does the source give for `[2H]c1nc(C)nc([2H])c1-c1cc(NC[C@@H](C)c2cccc3c(C(=O)NC)ccnc23)ncn1` + COc1cc2c(cc1O)CCNC21CSC2c3c(OC(C)=O)c(C)c4c(c3C(COC1=O)N1C(O)C3Cc5cc(C)c(OC)c(O)c5C(C21)N3C)OCO4 here?
A: > 10 µM

Q: What about the IC50 (second compound 94.9 pM) of the same compound?
A: > 10 µM

Q: And the IC50 (second compound 0.0003 µM)?
A: < 0.0316 µM

Q: And the IC50 (second compound 0.000949 µM)?
A: < 0.0316 µM

Q: And the IC50 (second compound 0.003 µM)?
A: < 0.0316 µM

Q: And the viability, T/C (second compound 30 pM, first compound 0.0316 µM)?
A: 105%

Q: What about the viability, T/C (second compound 30 pM, first compound 0.1 µM) of the same compound?
A: 113%

Q: What about the viability, T/C (second compound 30 pM, first compound 0.316 µM) of the same compound?
A: 106%

Q: And the viability, T/C (second compound 30 pM, first compound 1 µM)?
A: 109%

Q: And the viability, T/C (second compound 30 pM, first compound 3.16 µM)?
A: 107%

Q: And the viability, T/C (second compound 30 pM, first compound 10 µM)?
A: 97.6%

Q: And the viability, T/C (second compound 94.9 pM, first compound 0.0316 µM)?
A: 111%

Q: What about the viability, T/C (second compound 94.9 pM, first compound 0.1 µM) of the same compound?
A: 107%

Q: What about the viability, T/C (second compound 94.9 pM, first compound 0.316 µM) of the same compound?
A: 108%

Q: And the viability, T/C (second compound 94.9 pM, first compound 1 µM)?
A: 111%

Q: What about the viability, T/C (second compound 94.9 pM, first compound 3.16 µM) of the same compound?
A: 98.3%

Q: And the viability, T/C (second compound 94.9 pM, first compound 10 µM)?
A: 98%

Q: And the viability, T/C (second compound 0.0003 µM, first compound 0.0316 µM)?
A: 44.4%

Q: And the viability, T/C (second compound 0.0003 µM, first compound 0.1 µM)?
A: 38.9%

Q: What about the viability, T/C (second compound 0.0003 µM, first compound 0.316 µM) of the same compound?
A: 39%

Q: What about the viability, T/C (second compound 0.0003 µM, first compound 1 µM) of the same compound?
A: 42.1%

Q: What about the viability, T/C (second compound 0.0003 µM, first compound 3.16 µM) of the same compound?
A: 37.4%

Q: And the viability, T/C (second compound 0.0003 µM, first compound 10 µM)?
A: 42.4%

Q: And the viability, T/C (second compound 0.000949 µM, first compound 0.0316 µM)?
A: 2.57%

Q: What about the viability, T/C (second compound 0.000949 µM, first compound 0.1 µM) of the same compound?
A: 4.99%

Q: What about the viability, T/C (second compound 0.000949 µM, first compound 0.316 µM) of the same compound?
A: 2.84%

Q: What about the viability, T/C (second compound 0.000949 µM, first compound 1 µM) of the same compound?
A: 4.1%

Q: What about the viability, T/C (second compound 0.000949 µM, first compound 3.16 µM) of the same compound?
A: 3.19%

Q: What about the viability, T/C (second compound 0.000949 µM, first compound 10 µM) of the same compound?
A: 3.15%

Q: What about the viability, T/C (second compound 0.003 µM, first compound 0.0316 µM) of the same compound?
A: 0.21%

Q: And the viability, T/C (second compound 0.003 µM, first compound 0.1 µM)?
A: 0.22%

Q: What about the viability, T/C (second compound 0.003 µM, first compound 0.316 µM) of the same compound?
A: 0.17%

Q: What about the viability, T/C (second compound 0.003 µM, first compound 1 µM) of the same compound?
A: 0.21%

Q: What about the viability, T/C (second compound 0.003 µM, first compound 3.16 µM) of the same compound?
A: 0.16%

Q: What about the viability, T/C (second compound 0.003 µM, first compound 10 µM) of the same compound?
A: 0.28%
